Consider 25 compounds from patent US20240158383A1, “RIBONUCLEOTIDE REDUCTASE (RNR) INHIBITORS AND USES THEREOF” (Boundless Bio, Inc., priority 2021, published 2024).

The test system of experiment [1] is pCHK1 (S345) in Colo320 DM cells. Kind of experiment: CHK1 cellular activity (phospho-CHK1 AlphaLisa). The following applies: Homo sapiens, COLO 320DM, 16 h, compound overnight (approximately 16 hours). It is filed as cell-based, human. The protocol: Phospho-CHK1 cellular activity was measured as a marker of replication stress which is a consequence of RNR inhibition.
Colo320 DM cells (ATCC #CCL-220, derived from human colorectal adenocarcinoma, Dukes' type C) were seeded on a 96-well cell culture treated assay plate at a density of 50,000 cells/well in 200 μL of RPMI-1640 media supplemented with 10% Fetal Bovine Serum and incubated at 37 degrees Celsius overnight. The following day, test compound dilutions were added directly to the plated cells by a Tecan digital dispenser to a final DMSO concentration of <0.5% and incubated at 37 degrees Celsius overnight (approximately 16 hours). The following day all culture media is removed from the cells. 75 μL of 1× AlphaLisa lysis buffer is added to each well and plates are agitated on a shaker for 30 minutes at room temperature. The lysis of cells and detection of pCHK1 (S345) are performed with reagents contained within the AlphaLisa Sure Fire assay kit (Perkin Elmer #ALSU-PCHK1-A) according to the manufacturer's instructions. 10 μL of each lysate was then transferred to a white, 384-well assay plate (Perkin Elmer #6008280). 5 μL of Acceptor mix was then added to each well of lysate in the white, 384-well assay plate and incubated in the dark at room temperature for 60 minutes. 5 μL of Donor mix was then added to each well of the white, 384-well assay plate in subdued light and incubated at room temperature for 60 minutes. Plates are read on an Alpha Technology-compatible plate reader using standard AlphaLisa settings.
On the technique in general: In Alpha technology, singlet oxygen from a donor bead excites a nearby acceptor bead.

The target in the next experiment is RNR (RNR1:RNR2) (Homo sapiens (Human), UniProt P23921+P31350). Kind of experiment: RNR enzyme activity, rapid-fire mass spectrometry (RFMS) assay. In kind it is biochemical. The settings on record: [RNR] 50 nM, 1:1 RNR1:RNR2, [CDP] 5 μM, [ATP] 1 mM, 37° C., 45 min. The protocol:
A rapid-fire mass spectrometry (RFMS) assay was used to assess RNR enzyme activity using a 384 well plate and a robotic platform.
The plate layout included two validated reference compounds (Triapine (3-AP) and Hydroxyurea (HU)): • A dose response in duplicate; top concentration: 5 μM (3-AP) and 250 μM (HU), semi-log • dilutions. • Spike wells in triplicate randomly spotted at four concentrations: • 250 μM, 100 μM, 30 μM and 2 μM for HU • 5 μM, 2 μM, 0.6 μM and 0.04 μM for 3-AP
First, the multidrop pipes were saturated for 30 minutes with enzymatic solution. Then 30 μL of Stop solution was distributed in column 24. Next, 15 μL of enzyme was distributed in column 1 to 24. Next, a pre-incubation step of 15 minutes at room temperature occurred, followed by distribution of 15 μL of substrate solution (column 1 to 24). Next, the plate was incubated for 45 minutes at 37° C. 30 μL of Stop solution was distributed to columns 1 to 23.
The final parameters for the enzyme reactions were: • Incubation: 37° C., 45 min • [CDP]: 5 μM; [ATP]: 1 mM; [NADPH]: No • [RNR]final: 50 nM with 1:1 (RNR1:RNR2) ratio • Final volume: 30 μL • Stop solution: 6% HCOOH containing 2 μM of 15
The compounds were screened at concentrations from 10 nM to 30 μM.

Usually IC50 stands for the midpoint of a concentration-inhibition curve. High values mean lower potency, low ones higher potency.

RNR (RNR1:RNR2), sequence (P23921 whole entry): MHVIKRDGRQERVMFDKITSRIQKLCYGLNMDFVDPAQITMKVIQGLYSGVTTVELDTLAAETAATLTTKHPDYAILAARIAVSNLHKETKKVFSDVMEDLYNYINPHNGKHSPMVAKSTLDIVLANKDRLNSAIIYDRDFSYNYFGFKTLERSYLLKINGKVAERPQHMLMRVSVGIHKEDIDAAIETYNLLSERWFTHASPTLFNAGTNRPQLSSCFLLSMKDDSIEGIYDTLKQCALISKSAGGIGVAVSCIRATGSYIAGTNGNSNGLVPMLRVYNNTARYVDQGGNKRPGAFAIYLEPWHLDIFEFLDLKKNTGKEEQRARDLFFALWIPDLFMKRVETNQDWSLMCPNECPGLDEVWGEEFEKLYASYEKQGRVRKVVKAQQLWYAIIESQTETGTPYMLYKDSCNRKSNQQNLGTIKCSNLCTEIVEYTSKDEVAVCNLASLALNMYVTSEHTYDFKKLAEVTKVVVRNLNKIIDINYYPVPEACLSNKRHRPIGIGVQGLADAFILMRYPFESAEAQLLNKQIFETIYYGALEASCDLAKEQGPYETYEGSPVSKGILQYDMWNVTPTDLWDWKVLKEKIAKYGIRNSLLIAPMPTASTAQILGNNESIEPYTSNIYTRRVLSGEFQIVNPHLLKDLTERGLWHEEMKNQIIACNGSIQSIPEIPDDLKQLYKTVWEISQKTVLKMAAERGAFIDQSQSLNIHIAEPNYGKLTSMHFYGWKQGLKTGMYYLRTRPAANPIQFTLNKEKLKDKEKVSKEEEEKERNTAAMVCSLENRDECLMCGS
RNR (RNR1:RNR2), sequence (P31350 whole entry): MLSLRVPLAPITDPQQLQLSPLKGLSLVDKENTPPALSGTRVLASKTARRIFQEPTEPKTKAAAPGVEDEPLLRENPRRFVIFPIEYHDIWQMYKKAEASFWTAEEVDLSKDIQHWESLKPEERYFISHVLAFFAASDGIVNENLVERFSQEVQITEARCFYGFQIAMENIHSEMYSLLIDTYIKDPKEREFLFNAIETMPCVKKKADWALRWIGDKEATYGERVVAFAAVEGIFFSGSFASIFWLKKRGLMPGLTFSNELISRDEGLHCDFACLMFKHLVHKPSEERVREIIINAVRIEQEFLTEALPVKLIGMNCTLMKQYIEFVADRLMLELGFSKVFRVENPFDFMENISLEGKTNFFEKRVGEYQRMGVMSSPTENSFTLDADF

As to `Cc1ccc(F)c([C@@H](C)[C@H](NS(=O)(=O)c2ccc(Cl)c(Cl)c2)c2nn[nH]n2)c1C` [Example 32, 3,4-dichloro-N-((1S,2R)-2-(6-fluoro-2,3-dimethylphenyl)-1-(2H-tetrazol-5-yl)propyl)benzenesulfonamide], the values for the IC50 (in experiment [1]; at RNR (RNR1:RNR2)) were 50 to 100 µM and 0.1 to 1 µM, respectively.

On to `Cc1ccc(F)c([C@@H](C)[C@H](NS(=O)(=O)c2ccc(Cl)cc2)c2nn[nH]n2)c1C` [Example 33, 4-chloro-N-((1S,2R)-2-(6-fluoro-2,3-dimethylphenyl)-1-(2H-tetrazol-5-yl)propyl)benzenesulfonamide], for which the IC50 in experiment [1] was in the range of 30 to 50 µM; against RNR (RNR1:RNR2), 0.1 to 1 µM.

`COc1cc(Cl)ccc1S(=O)(=O)N[C@H](c1nnnn1C)[C@H](C)c1c(F)ccc(C)c1C` [Example 34, 4-chloro-N-((1S,2R)-2-(6-fluoro-2,3-dimethylphenyl)-1-(1-methyl-1H-tetrazol-5-yl)propyl)-2-methoxybenzensulfonamide]: the results for the IC50 (in experiment [1]; against RNR (RNR1:RNR2)) were 50 to 100 µM and 5 to 30 µM, respectively.

Take `COc1cc(Cl)ccc1S(=O)(=O)N[C@H](c1nnn(C)n1)[C@H](C)c1c(F)ccc(C)c1C` [Example 35, 4-chloro-N-((1S,2R)-2-(6-fluoro-2,3-dimethylphenyl)-1-(2-methyl-2H-tetrazol-5-yl)propyl)-2-methoxybenzensulfonamide]: the 50% inhibitory concentration (IC50) in experiment [1] lay within 50 to 100 µM; against RNR (RNR1:RNR2), 5 to 30 µM.

Turning to `Cc1ccc(F)c([C@@H](C)[C@H](NS(=O)(=O)c2cc(Cl)c(F)cc2F)c2nn[nH]n2)c1C` [Example 36, 5-chloro-2,4-difluoro-N-((1S,2R)-2-(6-fluoro-2,3-dimethylphenyl)-1-(2H-tetrazol-5-yl)propyl)benzenesulfonamide], the IC50 in experiment [1] lay within 50 to 100 µM; at RNR (RNR1:RNR2) it was 1 to 5 µM.

With `Cc1ccc(F)c([C@@H](C)[C@H](NS(=O)(=O)c2ccc(F)c(C#N)c2)c2nn[nH]n2)c1C` [Example 37, 3-cyano-4-fluoro-N-((1S,2R)-2-(6-fluoro-2,3-dimethylphenyl)-1-(2H-tetrazol-5-yl)propyl)benzensulfonamide], the half-inhibitory concentration (IC50) in experiment [1] was in the range of 50 to 100 µM; on RNR (RNR1:RNR2), 1 to 5 µM.

As for `Cc1ccc(F)c([C@@H](C)[C@H](NS(=O)(=O)c2ccc(F)c(C(N)=O)c2)c2nn[nH]n2)c1C` [Example 38, 2-fluoro-5-(N-((1S,2R)-2-(6-fluoro-2,3-dimethylphenyl)-1-(2H-tetrazol-5-yl)propyl)sulfamoyl)benzamide], the half-maximal inhibitory concentration (IC50) in experiment [1] lay in the range of 50 to 100 µM; on RNR (RNR1:RNR2), 1 to 5 µM.

Take `Cc1ccc(F)c([C@@H](C)[C@H](NS(=O)(=O)c2ccc(Cl)cc2Cl)c2nn[nH]n2)c1C` [Example 39, 2,4-dichloro-N-((1S,2R)-2-(6-fluoro-2,3-dimethylphenyl)-1-(2H-tetrazol-5-yl)propyl)benzenesulfonamide]: the half-maximal inhibitory concentration (IC50) lay within 10 to 30 µM in experiment [1] and 0.1 to 1 µM against RNR (RNR1:RNR2).

Consider `Cc1ccc(F)c([C@@H](C)[C@H](NS(=O)(=O)c2cc(Cl)c(Cl)cc2F)c2nn[nH]n2)c1C` [Example 40, 4,5-dichloro-2-fluoro-N-((1S,2R)-2-(6-fluoro-2,3-dimethylphenyl)-1-(2H-tetrazol-5-yl)propyl)benzenesulfonamide], for which the IC50 in experiment [1] is 50 to 100 µM; at RNR (RNR1:RNR2), 1 to 5 µM.

For the compound `Cc1ccc(F)c([C@@H](C)[C@H](NS(=O)(=O)c2ccc(Cl)cc2O)c2nn[nH]n2)c1C` [Example 41, 4-chloro-N-((1S,2R)-2-(6-fluoro-2,3-dimethylphenyl)-1-(2H-tetrazol-5-yl)propyl)-2-hydroxybenzenesulfonamide], the IC50 in experiment [1] was in the range of 50 to 100 µM; on RNR (RNR1:RNR2) it was 0.1 to 1 µM.

On to `Cc1cc(S(=O)(=O)N[C@H](c2nn[nH]n2)[C@H](C)c2c(F)ccc(C)c2C)c(F)cc1Cl` [Example 42], for which the IC50 lay within 50 to 100 µM in experiment [1] and 1 to 5 µM at RNR (RNR1:RNR2).

Turning to `Cc1ccc(F)c([C@@H](C)[C@H](NS(=O)(=O)c2cn(C)nc2C)c2nn[nH]n2)c1C` [Example 43], the results for the IC50 (in experiment [1]; against RNR (RNR1:RNR2)) were 50 to 100 µM and 1 to 5 µM, respectively.

Consider `Cc1ccc(F)c([C@@H](C)[C@H](NS(=O)(=O)c2cc(Cl)ccc2F)c2nn[nH]n2)c1C` [Example 44], for which the IC50 in experiment [1] is 50 to 100 µM; against RNR (RNR1:RNR2), 1 to 5 µM.

Consider `Cc1ccc(F)c([C@@H](C)[C@H](NS(=O)(=O)c2cc(Cl)ccc2Cl)c2nn[nH]n2)c1C` [Example 45], for which the half-inhibitory concentration (IC50) was in the range of 50 to 100 µM in experiment [1] and 5 to 30 µM at RNR (RNR1:RNR2).

Consider `Cc1ccc(F)c([C@@H](C)[C@H](NS(=O)(=O)c2ccc(Cl)c3nonc23)c2nn[nH]n2)c1C` [Example 46], for which the half-maximal inhibitory concentration (IC50) in experiment [1] was in the range of 50 to 100 µM; on RNR (RNR1:RNR2), 0.1 to 1 µM.

As to `Cc1ccc(F)c([C@@H](C)[C@H](NS(=O)(=O)c2cccc3[nH]c(=O)ccc23)c2nn[nH]n2)c1C` [Example 47], the results for the IC50 (in experiment [1]; against RNR (RNR1:RNR2)) were 50 to 100 µM and 0.1 to 1 µM, respectively.

Take `Cc1cc(S(=O)(=O)N[C@H](c2nn[nH]n2)[C@H](C)c2c(F)ccc(C)c2C)ccc1Cl` [Example 48]: the concentration for half-maximal inhibition (IC50) in experiment [1] was 10 to 30 µM; against RNR (RNR1:RNR2), 0.1 to 1 µM.

With `Cc1ccc(F)c([C@@H](C)[C@H](NS(=O)(=O)c2ccc(Cl)c(F)c2)c2nn[nH]n2)c1C` [Example 49], the 50% inhibitory concentration (IC50) is 10 to 30 µM in experiment [1] and 0.1 to 1 µM at RNR (RNR1:RNR2).

For the compound `Cc1ccc(F)c([C@@H](C)[C@H](NS(=O)(=O)c2ccc(Cl)cc2C(F)F)c2nn[nH]n2)c1C` [Example 50, 4-chloro-2-(difluoromethyl)-N-((1S,2R)-2-(6-fluoro-2,3-dimethylphenyl)-1-(2H-tetrazol-5-yl)propyl)benzenesulfonamide], the concentration for half-maximal inhibition (IC50) in experiment [1] was in the range of 30 to 50 µM; against RNR (RNR1:RNR2) it was 0.1 to 1 µM.

For the compound `Cc1ccc(Cl)cc1S(=O)(=O)N[C@H](c1nn[nH]n1)[C@H](C)c1c(F)ccc(C)c1C` [Example 53, 5-chloro-N-((1S,2R)-2-(6-fluoro-2,3-dimethylphenyl)-1-(2H-tetrazol-5-yl)propyl)-2-methylbenzenesulfonamide], the IC50 in experiment [1] lay within 50 to 100 µM; against RNR (RNR1:RNR2), 5 to 30 µM.

In the case of `[2H]C([2H])([2H])Oc1cc(Cl)ccc1S(=O)(=O)N[C@H](c1nn[nH]n1)[C@H](C)c1c(F)ccc(C)c1C` [Example 54, 4-chloro-N-((1S,2R)-2-(6-fluoro-2,3-dimethylphenyl)-1-(2H-tetrazol-5-yl)propyl)-2-(methoxy-d3)benzenesulfonamide], the IC50 in experiment [1] is 10 to 30 µM; against RNR (RNR1:RNR2) it was at most 0.1 µM.

Consider `Cc1ccc(F)c([C@@H](C)[C@H](NS(=O)(=O)c2ccc(Cl)c(C)c2Cl)c2nn[nH]n2)c1C` [Example 55, 2,4-dichloro-N-((1S,2R)-2-(6-fluoro-2,3-dimethylphenyl)-1-(2H-tetrazol-5-yl)propyl)-3-methylbenzenesulfonamide], for which the half-maximal inhibitory concentration (IC50) in experiment [1] was 10 to 30 µM; against RNR (RNR1:RNR2), at most 0.1 µM.

As for `Cc1ccc(F)c([C@@H](C)[C@H](NS(=O)(=O)c2c(F)cc(Cl)cc2F)c2nn[nH]n2)c1C` [Example 56, 4-chloro-2,6-difluoro-N-((1S,2R)-2-(6-fluoro-2,3-dimethylphenyl)-1-(2H-tetrazol-5-yl)propyl)benzenesulfonamide], the IC50 in experiment [1] fell in the range of 50 to 100 µM; against RNR (RNR1:RNR2), 0.1 to 1 µM.

Regarding `Cc1ccc(F)c([C@@H](C)[C@H](NS(=O)(=O)c2ccc(Cl)c([C@@H](O)C(=O)N(C)C)c2)c2nn[nH]n2)c1C` [Example 57, (R)-2-(2-chloro-5-(N-((1S,2R)-2-(6-fluoro-2,3-dimethylphenyl)-1-(2H-tetrazol-5-yl)propyl)sulfamoyl)phenyl)-2-hydroxy-N,N-dimethylacetamide], the IC50 in experiment [1] was in the range of 50 to 100 µM; against RNR (RNR1:RNR2), 0.1 to 1 µM.

Turning to `Cc1ccc(F)c([C@@H](C)[C@H](NS(=O)(=O)c2ccc(Cl)c([C@H](O)C(=O)N(C)C)c2)c2nn[nH]n2)c1C` [Example 58, (S)-2-(2-chloro-5-(N-((1S,2R)-2-(6-fluoro-2,3-dimethylphenyl)-1-(2H-tetrazol-5-yl)propyl)sulfamoyl)phenyl)-2-hydroxy-N,N-dimethylacetamide], the IC50 in experiment [1] fell in the range of 50 to 100 µM; against RNR (RNR1:RNR2) it was 0.1 to 1 µM.
